# Data taken from PubChem BioAssay AID1226 (NMMLSC, 2008).
# Records with an inconclusive call do not appear. Active and inactive are the calls of the source.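 The calls were made as follows: active = score of 100, fluorescent reporter fully moved to nucleus as with estrogen, or estrogen effect fully blocked; inactive = score of 0 or 50, partial or no effect.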
# Target: Estrogen receptor (Homo sapiens) (UniProt P03372)
# Assay: ERalpha-driven PIP3 reporter nuclear translocation, orthogonal assay for ERalpha ligand project, imaging, Cos7 ERalpha-GFP, PH-RFP reporter (AID 1226)
# Conditions: at 10 µM, active compounds read high
# Estrogen receptor (Homo sapiens), sequence (P03372 whole entry, looked up): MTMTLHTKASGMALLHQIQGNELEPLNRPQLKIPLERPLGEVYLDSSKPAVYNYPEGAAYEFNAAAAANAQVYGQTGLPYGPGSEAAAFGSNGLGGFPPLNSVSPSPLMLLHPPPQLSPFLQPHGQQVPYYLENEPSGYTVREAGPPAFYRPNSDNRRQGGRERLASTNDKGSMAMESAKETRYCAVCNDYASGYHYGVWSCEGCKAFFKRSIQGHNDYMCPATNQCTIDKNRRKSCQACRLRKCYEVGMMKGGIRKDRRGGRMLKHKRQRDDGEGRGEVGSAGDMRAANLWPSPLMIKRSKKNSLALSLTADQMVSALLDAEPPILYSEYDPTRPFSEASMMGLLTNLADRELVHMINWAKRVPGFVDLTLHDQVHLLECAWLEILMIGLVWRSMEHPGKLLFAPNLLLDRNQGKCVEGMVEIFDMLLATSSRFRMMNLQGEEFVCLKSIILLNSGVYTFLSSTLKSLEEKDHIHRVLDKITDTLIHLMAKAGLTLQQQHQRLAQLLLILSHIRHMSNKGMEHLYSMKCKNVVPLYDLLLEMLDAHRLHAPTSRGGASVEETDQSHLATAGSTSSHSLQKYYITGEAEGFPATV
row,Structure (SMILES),translocation response score
1,COc1cccc(NS(=O)(=O)c2ccc3c(c2)C2C=CCC2C(c2ccc(C(=O)O)cc2)N3)c1 (stereo not drawn),50 (inactive)
2,O=C(O)c1cc(Cl)c2c(c1)[C@@H]1C=CC[C@@H]1[C@H](c1ccc(S(=O)(=O)N3CCOCC3)cc1)N2,50 (inactive)
3,Cc1cc(-c2nn3c(-c4ccccc4)nnc3s2)c2ccccc2n1,100
4,Cc1cc(C)c2c(c1)[C@@H]1C=CC[C@@H]1[C@H](c1ccc(S(=O)(=O)N3CCOCC3)cc1)N2,100
5,O=C(O)c1ccc2c(c1)C1C(Cl)C(Sc3ccccc3[N+](=O)[O-])CC1C(c1cccc([N+](=O)[O-])c1)N2 (stereo not drawn),0 (inactive)
6,Brc1cc2c(cc1C1Nc3ccccc3C3C=CCC31)OCO2 (stereo not drawn),0 (inactive)
7,Nc1ncnc2c1ncn2C1CCC(CO)C(O)C1 (stereo not drawn),100
8,COc1ccccc1N1CCN(C(=O)c2ccc3nc(-c4ccco4)c(-c4ccco4)nc3c2)CC1,50 (inactive)
